# Article PMC12067444, “Synthesis and Pharmacological Characterization of Novel Peripheral Cannabinoid-1 Receptor Blockers Based on a Tricyclic Scaffold” (Journal of Medicinal Chemistry, 2025)
# Experiments:
# mouse brain tissue = test: Protein binding in mouse brain, equilibrium dialysis
# Description: (§1) Protein binding of test compound in mouse brain using equilibrium dialysis […]
# (§2) method. Solution A (0. 5 mM) was prepared by mixing 10 µL of a 10 mM stock solution […]
# (§3) with 190 µL of DMSO. Subsequently, Solution B (0.02 mM) was prepared by adding […]
# (§4) 8 µL of solution A to 192 µL of 0.05 M sodium phosphate buffer. The final concentration of DMSO in Solution B was 4%.
# (§5) A 96-well plate was initially prepared by dispensing 380 µL aliquots of brain […]
# (§6) tissue into wells designated for the brain while t h e buffer was added to the remaining […]
# (§7) wells to serve as a control. Subsequently, 20 µL of Solution B (containing 0.02 mM of […]
# (§8) test and reference compounds) was spiked into the pre-loaded brain samples in the […]
# (§9) plate. This step yielded a final test concentration of 1 µM, containing 0.2% DMSO. A duplicate system was establi shed for the dialysis sampl es wherein brain tissu e was prepared against buffer. Initially, 100 µL aliquots of blank dialysis buffer were applied to the receiver side of the dialysis chambers. Subsequently, 100 µL aliquots of the brain […]
# (§10) tissue spiked with te st and reference compounds were applied to the donor side of the […]
# (§11) T0 brain samples for initial concentrations were prepared in duplicate. A 25µL […]
# (§12) aliquot of the brain spiked with test and reference compounds was transferred into a 96- […]
# (§13) well sample preparation plate. An equivalent volume of blank buffer was then added […]
# (§14) to each well. Af ter the 5-hour incubation period, aliquots of 25 µL wer e taken f r om t h e […]
# (§15) dialysis apparatus's donor and receiver sides and transferred into new sample […]
# (§16) preparation plates. An equal volume of the opposite matrix (blank buffer to brain and […]
# (§17) vice versa) was added to each well, resulting in a final volume of 50 µL in each well.
# (§18) The samples (both T0 and f i v e h) were then quenched with 200 µL of acetonitrile […]
# (§19) containing internal standard (IS) and vortexed at 600 rpm for 10 minutes. After […]
# (§20) vortexing, the samples were centrifuged at 5594 × g for 15 minutes. Subsequently, 50 […]
# (§21) µL of the supernatants were transferred to a new 96-well plate and mixed with 50 µL […]
# (§22) of Milli- Q water. T he sample plates wer e cover ed and stor ed in a f r eezer ( -20 ℃) until […]
# (§23) respectively. For data analysis, the following equations wer e used:
# (§24) % Bound = 100 × ([Donor]5h -[ Receiver] 5h) / [Donor] 5h
# (§25) % Recovery= 100 × ([Donor]5h +[Receiver] 5h) / [Initial] 0h
# (§26) Undiluted Fu (%) = (1/D) / [(1/Fu2-1 ) + 1/ D ]
# (§27) Whereas; D: Dilution factor = Dilution factor of brain: 4
# [1] = as above; settings: mouse
# Description: as §1, §2, §3, §4, §5, §6, §7, §8, §9, §10, §11, §12, §13, §14, §15, §16, §17, §18, §19, §20, §21, §22, §23, §24, §25, §26, §27
# [2] = Brain compound levels in the CNS side-effect study (Figure 2H); type: in vivo; settings: male, C57Bl/6J, mouse, in vivo; BNS808 PO (1 or 10 mg/kg, dose not stated), 1 h after administration
# Description: The ability of BNS808 and rimonabant (as a positive control) to induce centrally mediated hyperactivity in mice (A–C). Wild-type, male, C57Bl/6J mice received a single dose of rimonabant (10 mg/kg, PO), BNS808 (1 or 10 mg/kg, PO) or vehicle, and the Promethion High-Definition Behavioral Phenotyping System monitored the activity profile. In addition, the ability of BNS808 and rimonabant (as a positive control) to inhibit the hypomotility induced by a CB1R receptor agonist (HU210; 30 μg/kg, IP) was tested in wild-type, male, C57Bl/6J mice which received a single dose of rimonabant (10 mg/kg, PO) or BNS808 (1 or 10 mg/kg, PO) or vehicle (D–F). […] Data represent the mean ± SEM from 4 to 8 mice per group. *P < 0.05 vs Vehicle-treated control. ^#P < 0.05 vs rimonabant.
# [3] = system: diet-induced obese C57Bl/6J mice; test: Chronic treatment of diet-induced obese (DIO) mice; type: in vivo, mouse; settings: vs vehicle
# Description: To induce diet-induced obesity, the mice were fed a high-fat diet (HFD) containing 60% of calories from fat, 20% from protein, and 20% carbohydrates (Research Diet, D12492) for 16 weeks. HFD-fed obese mice were administered either vehicle or BNS808 (in SEDDs) orally at 1 mg/kg (dosing volume of 1 mL/kg) for 24 days. Daily monitoring of body weight was conducted throughout the experimental period. Total body fat and lean masses were assessed using the EchoMRI-100H (Echo Medical Systems LLC, Houston, TX, USA). At the end of week 20, mice were euthanized via cervical dislocation under anesthesia. Various tissues, including the kidneys, brain, liver, fat pads, and muscles, were harvested and snap-frozen or fixed in buffered 4% formalin. Trunk blood samples were collected for biochemical parameters analysis. […]
smiles,measurement,setting,value
"O=S(=O)(NC1CCCOc2c1nn(-c1ccccc1Cl)c2-c1ccc(Cl)cc1)c1ccc(Cl)cc1 (stereo not drawn) [BNS808, 4-chloro-N-[2-(2-chlorophenyl)-3-(4-chlorophenyl)-5,6,7,8-tetrahydrooxepino[3,2-c]pyrazol-8-yl]benzenesulfonamide]",protein binding in mouse brain (category),"mouse brain tissue; equilibrium dialysis, 1 µM, 5 h",extremely high protein binding and high
same,Fraction of bound (%),"mouse brain tissue; mouse brain, diluted homogenate, 5 h",100%
same,Undiluted Bound (%),"mouse brain tissue; mouse brain, dilution factor 4",100.0%
same,"recovery at 5 h, 1 µM",[1],81.8%
same,concentration at 1 h,[2],13 ng/g
same,body weight,[3]; 1 mg/kg/day PO (in SEDDs) for 24 days,reduced body weight
same,fasting blood glucose,[3]; 1 mg/kg/day PO for 24 days,reduced the glucose levels in fasting conditions
same,glucose homeostasis (ipGTT),[3]; 1 mg/kg/day PO for 24 days,trend toward substantial effects
same,lean body mass (EchoMRI),[3]; 1 mg/kg/day PO for 24 days,significant increase in lean body mass
same,total body fat (EchoMRI),[3]; 1 mg/kg/day PO for 24 days,reduction in total body fat
same,HDL levels,[3]; 1 mg/kg/day for 24 days,without affecting HDL levels
same,HDL/LDL ratio,[3]; 1 mg/kg/day for 24 days,increased HDL/LDL ratio
same,LDL levels,[3]; 1 mg/kg/day for 24 days,reduced LDL levels
same,hepatic steatosis and hepatocellular damage (histology),[3]; 1 mg/kg/day for 24 days,reversing hepatic steatosis and hepatocellular damage
same,"liver enzymes (ALT, AST, ALP)",[3]; 1 mg/kg/day for 24 days,significant reduction
same,liver triglyceride content,[3]; 1 mg/kg/day for 24 days,significant reduction in liver triglyceride content
same,total cholesterol,[3]; 1 mg/kg/day for 24 days,reduced total cholesterol
same,triglycerides levels (serum),[3]; 1 mg/kg/day for 24 days,reduced
